Laboratory results taken from patent publication US20130149249A1, “IMAGING TUBERCULOSIS WITH PYRAZINAMIDE CONTRAST AGENTS” (GE HEALTHCARE LIMITED, priority 2010, published 2013).
Values after ≈ are worked out from the molar mass of the structure shown.

Experiments:
VERO cell = VERO cell cytotoxicity assay; type: cell-based; details: Chlorocebus sabaeus, 72 hours exposure, Cell Titer Glo viability
[1] = tested on: Mycobacterium tuberculosis H37Rv (ATCC 27294); test: Microplate Alamar Blue Assay (MABA); type: cell-based; details: M. tuberculosis H37Rv, BACTEC 12B medium, pH 6.8, concentration effecting 90% reduction in fluorescence relative to controls
Procedure: A series of in vitro tests were carried out to determine the properties of known compounds alongside a rhenium derivative of an in vivo imaging agent of the present invention. These tests were the Microplate Alamar Blue Assay (MABA) (Franzblau S et al., J Clin Microbiol 1998, 36, 362-366), the Low Oxygen Recovery Assay (LORA) (Cho et al., Antimicro Agents Chemother 2007, 51, 1380-1385), and the VERO cell cytotoxicity assay to determine IC 50 (Cory A H et al., Cancer Commun 1991, 3, 207-12).
The initial screen was conducted against Mycobacterium tuberculosis H37Rv (ATCC 27294) in BACTEC 12B medium using the Microplate Alamar Blue Assay (MABA). Compounds were tested in ten 2-fold dilutions, typically from 100 μg/mL to 0.19 μg/mL at pH 6.8. The MIC90 is defined as the concentration effecting a reduction in fluorescence of 90% relative to controls. This value was determined from the dose-response curve using a curve-fitting program.

Compound	IC50 (VERO cell) [µg/mL]	MIC [1] [µg/mL]
COc1ccc(CSCCNCCN(CCCN)CCSCc2ccc(OC)cc2)cc1 [Chelate alone]	> 50	1.49 (≈ 3.12 µM)
COc1ccc(CSCCNCCN(CCCNC(=O)c2cnccn2)CCSCc2ccc(OC)cc2)cc1 [PZA + Chelate]	36.8	10.4
NC(=O)c1cnccn1 [Standard drug, Pyrazinamide]	–	> 100
